In patent US20260284207A1, “COMPOUND FOR USE AS A PEPTIDE BINDER SPECIFICALLY BINDING TO THE UBIQUITIN LIGASE ADAPTER FBXO31” (ETH ZÜRICH, priority 2022, published 2026):
fluorescein = N-terminal fluorescein label, coupled as FITC

Columns and labels:
K562 cells = test: Fluorescent reporter protein stability assay in nucleofected K562 cells; type: cell-based, human; settings: sfGFP carrying a primary C-terminal amide
Method: HEK293T cells were cultured in DMEM containing Glutamax (Thermo Fisher Scientific) and K562 cells were cultured in RPMI 1640 containing Glutamax (Thermo Fisher Scientific) under standard conditions. Growth media were further supplemented with 10% (v/v) Fetal Bovine Serum (Thermo Fisher Scientific) and 100 U/ml Penicillin-Streptomycin (Thermo Fisher Scientific). Stably transduced cells were selected using 2 μg/ml Puromycin (Thermo Fisher Scientific), 500 μg/ml Geneticin (Thermo Fisher Scientific) or 10 μg/ml Blasticidin (Thermo Fisher Scientific) starting two days after transduction. Induction of doxycycline-dependent vectors was performed using 500 ng/ml doxycycline (Merck) every 48 hours. […]
For measuring stability of recombinant or semi-synthetic proteins, 1.5-2.0×10^5 cells were nucleofected with 200 pmol of protein in 20 μl cuvettes using a 4D nucleofector device (Lonza) to according the manufacturer's recommendations. Following protein delivery, cells were left to recover at 37° C. for 30-45 minutes before measuring initial mean fluorescence intensity values (to) on a Attune N×T Flow Cytometer (Thermo Fisher Scientific). […] Baseline-fluorescence values of mock nucleofected cells receiving no protein were measured and subtracted for each time point and baseline-corrected fluorescence values were normalized to t0. […]

FBXO31 = target: T1, FBXO31 (Homo sapiens, UniProt Q5XUX0); test: Competitive fluorescence polarization anisotropy (displacement of fluorescent peptide probes); type: binding; settings: probes FL-lib-SVV-NH2, FL-CycD1-NH2, FL-Pep2-NH2; 2 nM probe, 200 nM FBXO31
T1 construct: histidine tag (Ulp1-cleavable) (cleaved yes); made in house; host or cells: bacteria (pET28b expression vector)
Method: To test whether a lower molecular weight probe could be derived based on these rules, the C-terminally amidated tripeptide Ser-Val-Val-NH2 (302.37 g/mol) was tested.
Increasing concentrations of recombinant FBXO31/SKP1 complexes were mixed with 20 nM fluorescein-labeled peptides in FPA-buffer (150 mM NaCl, 25 mM HEPES, pH 7.5) and incubated for 30 minutes at room temperature. Fluorescence polarization was measured on a Victor Nivo Plate Reader (Perkin Elmer). Following subtraction of baseline signal, polarization levels were normalized to the highest signal of each pair of amidated and non-amidated peptides. Binding curves were fitted by least squares regression and half-maximal binding concentrations were extracted using Prism 9 (Graphpad) assuming one-site binding and no contribution from unspecific interaction. Competition binding assays were performed in the same way using a fixed ratio of 2 nM fluorescent probe and 200 nM FBXO31 and 0.67 nM to 100 μM competing ligand.

[1] = target: T2, recombinant FBXO31/SKP1 complexes (Homo sapiens, UniProt Q5XUX0); test: Fluorescence polarization (FP) binding of fluorescein-labeled peptides to recombinant FBXO31/SKP1; settings: wild type FBXO31/SKP1
T2 construct: histidine tag (Ulp1-cleavable) (cleaved yes); made in house; host or cells: bacteria (pET28b expression vector)
Method: It was then tested whether SCF/FBXO31 directly binds and ubiquitylates amidated clients, or whether it plays an indirect role in CTAP clearance. To this end, recombinant FBXO31 in complex with the binding partner SKP1 was purified and its affinity for various peptides was measured by fluorescence polarization (FP).
In this regard, it was first tested whether FBXO31 specifically binds C-terminal amides rather than side chain amides in asparagine or glutamine. […] Hydrophobic residues were most strongly bound, with X—F—CONH2 as the best substrate (KD≈6 nM), followed by other and then uncharged and charged hydrophilic side chains.
Codon-optimized CDNAs of SKP1 and FBXO31 were generated by gene synthesis (Integrated DNA Technologies) and cloned into the bacterial expression vector pET28b. Expression was performed at 18° C. overnight in presence of 0.5 mM IPTG. Following bacterial cell lysis by sonication in buffer NBA (200 mM NaCl, 50 mM HEPES, 25 mM imidazole, 5 mM DTT freshly added, pH 8.0), recombinant protein was enriched on a HisTrap FF column (Cytiva) by elution with 250 mM imidazole. […]
Increasing concentrations of recombinant FBXO31/SKP1 complexes were mixed with 20 nM fluorescein-labeled peptides in FPA-buffer (150 mM NaCl, 25 mM HEPES, pH 7.5) and incubated for 30 minutes at room temperature. Fluorescence polarization was measured on a Victor Nivo Plate Reader (Perkin Elmer). […]

T1 sequence (Q5XUX0 whole entry): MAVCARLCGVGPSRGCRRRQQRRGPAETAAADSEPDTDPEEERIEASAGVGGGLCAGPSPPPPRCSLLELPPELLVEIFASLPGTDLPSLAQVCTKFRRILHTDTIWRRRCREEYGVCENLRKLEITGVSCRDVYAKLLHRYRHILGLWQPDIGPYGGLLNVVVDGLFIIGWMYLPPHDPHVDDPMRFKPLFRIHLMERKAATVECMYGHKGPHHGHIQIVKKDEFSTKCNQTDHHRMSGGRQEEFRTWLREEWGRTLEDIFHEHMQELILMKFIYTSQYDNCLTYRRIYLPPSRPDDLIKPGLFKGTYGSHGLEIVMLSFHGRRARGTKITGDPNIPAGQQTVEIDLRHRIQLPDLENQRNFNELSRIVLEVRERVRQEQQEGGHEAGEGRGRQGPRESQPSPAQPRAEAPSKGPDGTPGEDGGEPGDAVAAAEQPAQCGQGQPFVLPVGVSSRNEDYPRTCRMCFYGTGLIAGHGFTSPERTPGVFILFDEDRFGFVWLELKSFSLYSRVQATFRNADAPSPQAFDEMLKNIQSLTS
T1 sequence (P63208 whole entry partner): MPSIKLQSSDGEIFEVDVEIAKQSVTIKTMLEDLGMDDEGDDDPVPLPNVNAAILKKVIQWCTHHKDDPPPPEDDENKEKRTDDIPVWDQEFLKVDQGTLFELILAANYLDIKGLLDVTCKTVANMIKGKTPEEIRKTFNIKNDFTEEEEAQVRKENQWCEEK
T2 sequence (Q5XUX0 whole entry): as the sequence (Q5XUX0 whole entry) above
T2 sequence (P63208 whole entry partner): as the sequence (P63208 whole entry partner) above

| Molecule | effect of inhibitor on destabilization of C-terminally amidated sfGFP (K562 cells) | other results |
| --- | --- | --- |
| NS(=O)(=O)OC[C@H]1C[C@@H](Nc2ccnc3cc(-c4cccc(SC(F)(F)F)c4)nn23)[C@H](O)[C@@H]1O [TAK243] | fully blunted | – |
| CC[C@H](C)[C@H](NC(=O)[C@H]([C@@H](C)CC)N(C)C(C)=O)C(=O)N[C@H](C(=O)N[C@@H](CC(C)C)C(=O)[C@@]1(C)CO1)[C@@H](C)O [epoxomicin] | fully blunted | – |
| Ser-Val-Val-NH2 | – | displacement of fluorescent peptide probes from FBXO31 (FBXO31): efficiently displace |
| [Fluorescein]-KKYRYDVPDYSVV-NH2 (fluorescein-KKYRYDVPDYSVV-NH2) [FL-lib-SVV-NH2] | – | binding/affinity for FBXO31 (in words) [1]: high affinity |
